Data set [1] relates to SUDHL10. The data set is described as follows: Anti-proliferative effect (CellTiter-Glo, 72 h), SUDHL10. It is filed as cell-based. To be noted: SUDHL10 cells, antiproliferation, median, read-out: Antiproli SUDHL10 [M] (median). In a few lines: (§1)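 Endpoint: CellTiter-Glo luminescence, 10 min after reagent addition. Treatment ran 72 h at 37 °C, humidified. Growth was referenced to a separately plated day 0 plate.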

The subject of data set [2] is SUDHL10. The data set can be described thus: Induction of cytotoxicity (CellTiter-Glo, 5 h), SUDHL10. Particulars: read-out: Cytotox SUDHL10 [M] (median), SUDHL10 cells, cytotoxicity induction, CellTiter-Glo, median.
For data set [3], the system named is SUDHL5. The data set is described as follows: Anti-proliferative effect (CellTiter-Glo, 72 h), SUDHL5. To be noted: SUDHL5 cells, antiproliferation, median, read-out: Antiproli SUDHL5 [M] (median). It is filed as cell-based. In a few lines: as §1
The subject of data set [4] is SUDHL10. The data set is described as follows: Induction of caspase-3/7 activity (Caspase-Glo 3/7), SUDHL10. It is filed as cell-based. Particulars: caspase-3/7 induction, SUDHL10 cells, 3 h treatment; median. In a few lines:
(§2)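 A 3 h, 37 °C compound incubation precedes the Caspase-Glo 3/7 read. After subtracting medium-only signal, EC50s are fitted against the reference compound's maximal caspase induction.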

Data set [5] relates to SUDHL5. The data set is described as follows: Induction of cytotoxicity (CellTiter-Glo, 5 h), SUDHL5. Particulars: read-out: Cytotox SUDHL5 [M] (median), SUDHL5 cells, cytotoxicity induction, CellTiter-Glo, median.
A further data set relates to A2780. The data set can be described thus: Anti-proliferative effect (CellTiter-Glo, 72 h), A2780. It is filed as cell-based. To be noted: A2780 cells, median, read-out: IC50 antiproliferation assay A2780 [M] (median). The method, boiled down:
as §1

In another data set the target is MCL-1 (Homo sapiens, UniProt Q07820). The data set is described as follows: Protein-protein interaction assay MCL-1/Noxa BH3 peptide (MCL-1 assay), TR-FRET. It is filed as binding. To be noted: MBP-MCL-1 / Noxa BH3-derived peptide, median. The method, boiled down:
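Steady-state competition, MCL-1/Noxa BH3, TR-FRET readout; 1 nM MBP-MCL-1, 11-point dose series 0.1 nM–20 μM; overnight 4 °C equilibration; 4-parameter IC50.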

Data set [6] deals with SUDHL5. The data set can be described thus: Induction of caspase-3/7 activity (Caspase-Glo 3/7), SUDHL5. It is filed as cell-based. Particulars: caspase-3/7 induction, SUDHL5 cells, 3 h treatment; median. The method, boiled down: as §2

Molecules are shown by their SMILES. Counter-ions that a name gives are not always drawn. Some results are limits rather than exact numbers.

Chain of MCL-1 (Q07820 whole entry): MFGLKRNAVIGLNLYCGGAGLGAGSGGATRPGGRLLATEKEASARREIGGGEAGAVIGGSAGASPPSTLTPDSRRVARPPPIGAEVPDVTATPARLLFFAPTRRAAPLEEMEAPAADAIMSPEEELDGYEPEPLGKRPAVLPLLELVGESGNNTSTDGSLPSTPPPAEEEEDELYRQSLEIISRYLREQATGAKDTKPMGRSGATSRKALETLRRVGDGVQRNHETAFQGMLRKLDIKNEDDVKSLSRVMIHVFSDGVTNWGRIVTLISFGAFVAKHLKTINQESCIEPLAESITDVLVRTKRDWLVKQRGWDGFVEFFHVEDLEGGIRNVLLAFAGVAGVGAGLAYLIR

For the compound `Cn1nc(CN2CC3(COC3)C2)c2c1COCCCCn1c(C(=O)O)c(CCCOc3cccc4ccccc34)c3cccc-2c31` (single isomer, unassigned; enantiomer 1) [Example 344, 1-methyl-7-[3-(naphthalen-1-yloxy)propyl]-3-(2-oxa-6-azaspiro[3.3]hept-6-ylmethyl)-1,10,11,12,13,15-hexahydropyrazolo[4′,3′:9,10][1,6]oxazacycloundecino[8,7,6-hi]indole-8-carboxylic acid-N-ethylethanamine Salt (Enantiomer 1)], the IC50 is 1.44e-05 M in the data set with SUDHL10 [1] (72 h); more than 3.3e-05 M in the data set with SUDHL10 [2] (5 h); 2.08e-05 M in the data set on SUDHL5 [3] (72 h); more than 3.3e-05 M in the data set on SUDHL5 [5] (5 h); more than 3.3e-05 M in the data set on A2780; 0.433 µM on MCL-1. Further, the EC50 in the data set with SUDHL10 [4] and in the data set with SUDHL5 [6] was more than 33 µM each time.
Take `Cc1nn(C)c2c1-c1cccc3c(CCCOc4cccc5c4CCCC5)c(C(=O)O)n(c13)CCCCOC2` (single isomer, unassigned; enantiomer 2) [Example 008, 1,3-dimethyl-7-[3-(5,6,7,8-tetrahydronaphthalen-1-yloxy)propyl]-1,10,11,12,13,15-hexahydropyrazolo[4′3′:9,10][1,6]oxazacycloundecino[8,7,6-hi]indole-8-carboxylic Acid-N-ethylethanamine Salt (Enantiomer 2)]: the IC50 is 1.55e-05 M in the data set on SUDHL10 [1] (72 h incubation); more than 3.3e-05 M in the data set with SUDHL10 [2] (5 h incubation); 2.59e-05 M with SUDHL5 [3] (72 h incubation); more than 3.3e-05 M in the data set with SUDHL5 [5] (5 h incubation); 2.46e-05 M in the data set with A2780; 0.126 µM at MCL-1. Moreover, the EC50 with SUDHL10 [4] and with SUDHL5 [6] was more than 33 µM in each case.
In the case of `Cc1cc(OCCCc2c(C(=O)O)n3c4c(cccc24)-c2c(C)nn(C)c2COCCCC3)cc(C)c1Cl` (single isomer, unassigned; enantiomer 2) [Example 011, 7-[3-(4-chloro-3,5-dimethylphenoxy)propyl]-1,3-dimethyl-1,10,11,12,13,15-hexahydropyrazolo[4′,3′:9,10][1,6]oxazacycloundecino[8,7,6-hi]indole-8-carboxylic Acid-N-ethylethanamine Salt (Enantiomer 2)], the IC50 was 1.18e-05 M in the data set on SUDHL10 [1] (72 h incubation); more than 3.3e-05 M with SUDHL10 [2] (5 h incubation); 2.02e-05 M in the data set with SUDHL5 [3] (72 h incubation); more than 3.3e-05 M in the data set on SUDHL5 [5] (5 h incubation); 1.58e-05 M in the data set with A2780; 0.162 µM against MCL-1. For the same compound, the EC50 in the data set on SUDHL10 [4] and in the data set with SUDHL5 [6] was more than 33 µM throughout.
`Cc1nn(C)c2c1-c1cccc3c(CCCOc4cccc5cc(F)ccc45)c(C(=O)O)n(c13)CCCCOC2` (single isomer, unassigned; enantiomer 2) [Example 020, 7-{3-[(6-fluoronaphthalen-1-yl)oxy]propyl}-1,3-dimethyl-1,10,11,12,13,15-hexahydropyrazolo[4′,3′:9,10][1,6]oxazacycloundecino[8,7,6-hi]indole-8-carboxylic Acid-N-ethylethanamine Salt (Enantiomer 2)]: the IC50 with SUDHL10 [1] (72 h incubation) was 6.75e-06 M; with SUDHL10 [2] (5 h incubation), more than 3.3e-05 M; with SUDHL5 [3] (72 h incubation), 1.72e-05 M; in the data set on SUDHL5 [5] (5 h incubation) it was 2.31e-05 M; in the data set on A2780, 1.37e-05 M; at MCL-1 it was 0.0646 µM. Also, the EC50 in the data set with SUDHL10 [4] and in the data set with SUDHL5 [6] was more than 33 µM in each case.
Regarding `Cc1ccc2c(CCCOc3cccc4ccccc34)c(C(=O)O)n3c2c1-c1c(C)nn(C)c1COCCCC3` (single isomer, unassigned; enantiomer 2) [Example 029, 1,3,4-trimethyl-7-[3-(naphthalen-1-yloxy)propyl]-1,10,11,12,13,15-hexahydropyrazolo[4′,3′:9,10][1,6]oxazacycloundecino[8,7,6-hi]indole-8-carboxylic acid-N-ethylethanamine Salt (Enantiomer 2)], the IC50 in the data set with SUDHL10 [1] (72 h incubation) was 1.38e-05 M; in the data set on SUDHL10 [2] (5 h incubation), more than 3.3e-05 M; in the data set with SUDHL5 [3] (72 h incubation), 1.82e-05 M; with SUDHL5 [5] (5 h incubation), more than 3.3e-05 M; in the data set on A2780, 2.01e-05 M; against MCL-1, 0.22 µM. Besides, the EC50 in the data set on SUDHL10 [4] and with SUDHL5 [6] was more than 33 µM throughout.
For the compound `Cc1cc2c(OCCCc3c(C(=O)O)n4c5c(cccc35)-c3c(C)nn(C)c3COCCCC4)cccc2cc1F` (single isomer, unassigned; enantiomer 2) [Example 051, 7-{3-[(6-fluoro-7-methylnaphthalen-1-yl)oxy]propyl}-1,3-dimethyl-1,10,11,12,13,15-hexahydropyrazolo[4′,3′:9,10][1,6]oxazacycloundecino[8,7,6-hi]indole-8-carboxylic acid-N-ethylethanamine Salt (Enantiomer 2)], the IC50 with SUDHL10 [1] (72 h incubation) was found to be 4.39e-06 M; in the data set on SUDHL10 [2] (5 h incubation), 2.02e-05 M; with SUDHL5 [3] (72 h incubation), 8.91e-06 M; with SUDHL5 [5] (5 h incubation), 3e-05 M; with A2780, 1.53e-05 M; at MCL-1 it was 0.0737 µM. Besides, the EC50 in the data set on SUDHL10 [4] and in the data set with SUDHL5 [6] was more than 33 µM each time.
For the compound `Cc1c2c(nn1C)CN(C)CCCCn1c(C(=O)O)c(CCCOc3cccc4ccccc34)c3cccc-2c31` (single isomer, unassigned; enantiomer 2) [Example 069, 2,3,14-trimethyl-7-[3-(naphthalen-1-yloxy)propyl]-10,11,12,13,14,15-hexahydro-2H-pyrazolo[3′,4′:8,9][1,6]diazacycloundecino[10,11,1-hi]indole-8-carboxylic Acid (Enantiomer 2)], the IC50 with SUDHL10 [1] (72 h incubation) was 2.11e-05 M; in the data set on SUDHL10 [2] (5 h incubation) it was more than 3.3e-05 M; in the data set with SUDHL5 [3] (72 h incubation) it was more than 3.3e-05 M; in the data set on SUDHL5 [5] (5 h incubation), more than 3.3e-05 M; with A2780, more than 3.3e-05 M; against MCL-1 it was 0.162 µM. The EC50 with SUDHL10 [4] and with SUDHL5 [6] was more than 33 µM each time.
`Cc1ccc2c(CCCOc3cccc4ccccc34)c(C(=O)O)n3c2c1-c1c(nn(C)c1C)COCCCC3` (single isomer, unassigned; enantiomer 2) [Example 077, 2,3,4-trimethyl-7-[3-(naphthalen-1-yloxy)propyl]-2,10,11,12,13,15-hexahydropyrazolo[4′,3′:9,10][1,6]oxazacycloundecino[8,7,6-hi]indole-8-carboxylic Acid (Enantiomer 2)]: the IC50 in the data set with SUDHL10 [1] (72 h incubation) was 1.17e-05 M; in the data set on SUDHL10 [2] (5 h incubation), more than 3.3e-05 M; in the data set with SUDHL5 [3] (72 h incubation) it was 2.73e-05 M; with SUDHL5 [5] (5 h incubation) it was more than 3.3e-05 M; with A2780 it was 2.06e-05 M; at MCL-1 it was 0.0342 µM. Further, the EC50 with SUDHL10 [4] and in the data set with SUDHL5 [6] was more than 33 µM throughout.
Take `CCn1nc2c(c1C1CC1)-c1cccc3c(CCCOc4cccc5ccccc45)c(C(=O)O)n(c13)CCCCOC2` (single isomer, unassigned; enantiomer 2) [Example 083, 3-cyclopropyl-2-ethyl-7-[3-(naphthalen-1-yloxy)propyl]-2,10,11,12,13,15-hexahydropyrazolo[4′,3′:9,10][1,6]oxazacycloundecino[8,7,6-hi]indole-8-carboxylic acid-N-ethylethanamine Salt (Enantiomer 2)]: the IC50 in the data set with SUDHL10 [1] (72 h incubation) is 1.47e-05 M; in the data set with SUDHL10 [2] (5 h incubation), more than 3.3e-05 M; in the data set on SUDHL5 [3] (72 h incubation), 2.68e-05 M; in the data set on SUDHL5 [5] (5 h incubation), more than 3.3e-05 M; in the data set with A2780 it was 1.38e-05 M; against MCL-1 it was 0.172 µM. Also, the EC50 with SUDHL10 [4] and with SUDHL5 [6] was more than 33 µM each time.

The record behind these values is patent publication US10981932B2, “Macrocyclic indole derivatives” (Bayer Aktiengesellschaft, priority 2016, dated 2021).
